From patent US10597391B2, “Urea-containing isoxazole derivatives as FXR agonists and methods of use thereof” (Enanta Pharmaceuticals, Inc., priority 2016, dated 2020) come the findings set out here.

This experiment addresses T1, human FXR (NR1H4) (Homo sapiens, UniProt Q96RI1).
T1 sequence (Q96RI1 1-486): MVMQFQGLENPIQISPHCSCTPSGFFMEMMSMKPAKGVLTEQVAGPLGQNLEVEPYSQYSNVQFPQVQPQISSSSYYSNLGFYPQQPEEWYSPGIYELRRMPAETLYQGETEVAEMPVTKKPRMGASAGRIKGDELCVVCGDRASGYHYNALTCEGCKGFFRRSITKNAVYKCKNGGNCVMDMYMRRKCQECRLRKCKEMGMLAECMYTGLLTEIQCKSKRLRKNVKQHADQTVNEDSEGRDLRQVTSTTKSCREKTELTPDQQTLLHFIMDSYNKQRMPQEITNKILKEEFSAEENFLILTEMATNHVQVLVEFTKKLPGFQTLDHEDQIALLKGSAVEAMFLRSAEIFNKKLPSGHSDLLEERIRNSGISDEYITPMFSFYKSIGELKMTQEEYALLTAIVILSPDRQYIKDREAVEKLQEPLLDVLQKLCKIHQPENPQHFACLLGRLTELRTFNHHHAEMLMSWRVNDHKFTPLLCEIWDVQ
Kind of experiment: Human FXR (NR1H4) Assay: Gal4 promoter driven luciferase reporter transactivation in CHO cells (Indigo Bioscience kit IB00601). Particulars: for EC50: Human FXR (NR1H4) reporter assay in CHO cells; for Emax: CHO, read-out: Efficacy (%). It counts as cell-based. The source says: Human FXR (NR1H4) Assay Determination of a ligand mediated Gal4 promoter driven transactivation to quantify ligand binding mediated activation of FXR. FXR Reporter Assay kit purchased from Indigo Bioscience (Catalogue number: IB00601) to determine the potency and efficacy of compounds that can induce FXR activation. The principle application of this reporter assay system is to quantify functional activity of human FXR. The assay utilizes non-human mammalian cells, CHO (Chinese hamster ovary) cells engineered to express human NR1H4 protein (referred to as FXR). Reporter cells also incorporate the cDNA encoding beetle luciferase which catalyzes the substrates and yields photon emission. Luminescence intensity of the reaction is quantified using a plate-reading luminometer, Envision. Reporter Cells include the luciferase reporter gene functionally linked to an FXR responsive promoter. Thus, quantifying changes in luciferase expression in the treated reporter cells provides a sensitive surrogate measure of the changes in FXR activity. […] The assay is according to the manufacturer's instructions. […] Retrieve Reporter Cells from −80° C. storage. Perform a rapid thaw of the frozen cells by transferring a 10 ml volume of 37° C. cell recovery medium into the tube of frozen cells. […] Retrieve the tube of Reporter Cell Suspension from the water bath. […] Dispense 90 μl of cell suspension into each well of the 96-well Assay Plate. Transfer the plate into 37° C. incubator, allowing the cells adherent to the bottom of the well. Dilute compounds in Dilution Plate (DP), and administrate to cells at Assay Plate (AP). […] Cells were incubated for additional 22 hours before luciferase activities were measured. Thirty minutes before intending to quantify FXR activity, remove Detection Substrate and Detection Buffer from the refrigerator and place them in a low-light area so that they may equilibrate to room temperature. Remove the plate's lid and discard all media contents by ejecting it into an appropriate waste container. Gently tap the inverted plate onto a clean absorbent paper towel to remove residual droplets. Cells will remain tightly adhered to well bottoms. Add 100 μl of luciferase detection reagent to each well of the assay plate. Allow the assay plate to rest at room temperature for at least 5 minutes following the addition of LDR. Set the instrument (Envision) to perform a single 5 second “plate shake” prior to reading the first assay well. Read time may be 0.5 second (500 mSec) per well.

The mark [1] stands for this setting: efficacy normalized to CDCA set as 100%.

Read-outs that look alike come from different tables or passages of the source. A value given as a limit tells only on which side of the number the result lay.

A word on the EC50: it is the midpoint of the concentration-response curve. As to `CC(C)(C)c1ccc(S(=O)(=O)NC(=O)c2cccc(NC(=O)N3C4CCC3CC(OCc3c(-c5c(Cl)cccc5Cl)noc3C3CC3)C4)c2)cc1` (stereo not shown) [Example 217], the EC50 (potency range, read-out: EC50) was over 1000 nM. Same read-out and setting: next, `CN(C)S(=O)(=O)NC(=O)c1cccc(NC(=O)N2C3CCC2CC(OCc2c(-c4c(Cl)cccc4Cl)noc2C2CC2)C3)c1` (stereo not shown) [Example 219]: 100 to 1000 nM; `CCOC(=O)c1cccc(NC(=O)N2C3CCC2CC(OCc2c(-c4ccccc4OC(F)(F)F)noc2C2CC2)C3)c1` (stereo not shown) [Example 227]: 10 to 100 nM; `CCOC(=O)c1ccc(NC(=O)N2C3CCC2CC(OCc2c(-c4ccccc4OC(F)(F)F)noc2C2CC2)C3)cc1` (stereo not shown) [Example 228]: 100 to 1000 nM. Take `O=C(O)c1cccc(NC(=O)N2C3CCC2CC(OCc2c(-c4ccccc4OC(F)(F)F)noc2C2CC2)C3)c1` (stereo not shown) [Example 229]: where the note is “potency range, read-out: EC50”, the 50% effective concentration (EC50) fell in the range of 100 to 1000 nM.

On to `O=C(O)c1ccc(NC(=O)N2C3CCC2CC(OCc2c(-c4ccccc4OC(F)(F)F)noc2C2CC2)C3)cc1` (stereo not shown) [Example 230], for which the EC50 (potency range, read-out: EC50) was in the range of 10 to 100 nM. Same read-out and setting: next, `COC(=O)c1ccc(NC(=O)N2C3CCC2CC(OCc2c(-c4ccccc4OC(F)(F)F)noc2C2CC2)C3)c(OC)c1` (stereo not shown) [Example 236]: 10 to 100 nM; `COC(=O)c1ccc(NC(=O)N2C3CCC2CC(OCc2c(-c4ccccc4OC(F)(F)F)noc2C2CC2)C3)c(F)c1` (stereo not shown) [Example 237]: 100 to 1000 nM; `COc1cc(C(=O)O)ccc1NC(=O)N1C2CCC1CC(OCc1c(-c3ccccc3OC(F)(F)F)noc1C1CC1)C2` (stereo not shown) [Example 238]: under 10 nM. The same measure, in the same setting: the value for `O=C(O)c1ccc(NC(=O)N2C3CCC2CC(OCc2c(-c4ccccc4OC(F)(F)F)noc2C2CC2)C3)c(F)c1` (stereo not shown) [Example 239] was 10 to 100 nM. Same read-out and setting: the value for `O=C(O)c1ccc(NC(=O)N2C3CCC2CC(OCc2c(-c4ccccc4OC(F)(F)F)noc2C2CC2)C3)cc1-c1ccccc1` (stereo not shown) [Example 247] was under 10 nM; that for `CS(=O)(=O)NC(=O)c1cccc(NC(=O)N2C3CCC2CC(OCc2c(-c4ccccc4OC(F)(F)F)noc2C2CC2)C3)c1` (stereo not shown) [Example 262] was over 1000 nM; that for `CC(C)(C)c1ccc(S(=O)(=O)NC(=O)c2cccc(NC(=O)N3C4CCC3CC(OCc3c(-c5ccccc5OC(F)(F)F)noc3C3CC3)C4)c2)cc1` (stereo not shown) [Example 263] was over 1000 nM. Consider `O=C(NS(=O)(=O)C1CC1)c1cccc(NC(=O)N2C3CCC2CC(OCc2c(-c4ccccc4OC(F)(F)F)noc2C2CC2)C3)c1` (stereo not shown) [Example 264], for which the EC50 (potency range, read-out: EC50) was over 1000 nM.

As for `CN(C)S(=O)(=O)NC(=O)c1cccc(NC(=O)N2C3CCC2CC(OCc2c(-c4ccccc4OC(F)(F)F)noc2C2CC2)C3)c1` (stereo not shown) [Example 265], the EC50 (potency range, read-out: EC50) was in the range of 100 to 1000 nM. Still for that read-out and setting: the value for `O=C(N[C@H]1CC[C@H](C(=O)O)CC1)N1C2CCC1CC(OCc1c(-c3ccccc3OC(F)(F)F)noc1C1CC1)C2` (stereo partly shown) [Example 266] was 100 to 1000 nM; that for `O=C(O)c1ccc(NC(=O)N2C3CCC2CC(OCc2c(C4CCC5(CC4)CC5)noc2C2CC2)C3)c(F)c1` (stereo not shown) [Example 285] was 10 to 100 nM. The same measure, in the same setting: the value for `O=C(O)c1ccc(NC(=O)N2C3CCC2CC(OCc2c(C4CCC5(CC4)CC5)noc2C2CC2)C3)cc1-c1ccccc1` (stereo not shown) [Example 293] was 10 to 100 nM. Consider `COC(=O)c1ccc2c(c1)N(C(=O)N1C3CCC1CC(OCc1c(-c4ccccc4OC(F)(F)F)noc1C1CC1)C3)CC2` (stereo not shown) [Example 589], for which the Emax turned out to be 76%. Also, under “potency range, read-out: EC50”, the EC50 is over 1000 nM.

Turning to `O=C(O)c1ccc2c(c1)N(C(=O)N1C3CCC1CC(OCc1c(-c4ccccc4OC(F)(F)F)noc1C1CC1)C3)CC2` (stereo not shown) [Example 590], the Emax was found to be 67%. Also, the EC50 (potency range, read-out: EC50) is over 1000 nM.

Regarding `CCOC(=O)c1ccc2c(c1)CCN2C(=O)N1C2CCC1CC(OCc1c(-c3ccccc3OC(F)(F)F)noc1C1CC1)C2` (stereo not shown) [Example 591], the Emax stood at 166%. Further, where the note is “potency range, read-out: EC50”, the EC50 is over 1000 nM. In the same order, the values of `O=C(O)c1ccc2c(c1)CCN2C(=O)N1C2CCC1CC(OCc1c(-c3ccccc3OC(F)(F)F)noc1C1CC1)C2` (stereo not shown) [Example 592] are 227% and over 1000 nM. `CCOC(=O)c1ccc2c(c1)CCCN2C(=O)N1C2CCC1CC(OCc1c(-c3ccccc3OC(F)(F)F)noc1C1CC1)C2` (stereo not shown) [Example 593]: the Emax amounted to 40%. The EC50 (potency range, read-out: EC50) was over 1000 nM.

As to `O=C(O)c1ccc2c(c1)CCCN2C(=O)N1C2CCC1CC(OCc1c(-c3ccccc3OC(F)(F)F)noc1C1CC1)C2` (stereo not shown) [Example 594], the Emax stood at 49%. Moreover, the EC50 (potency range, read-out: EC50) was 100 to 1000 nM. In the same order, the values of `CCOC(=O)c1ccc2c(c1)N(C(=O)N1C3CCC1CC(OCc1c(-c4ccccc4OC(F)(F)F)noc1C1CC1)C3)CCC2` (stereo not shown) [Example 595] are 7% and over 1000 nM.

On to `O=C(O)c1ccc2c(c1)N(C(=O)N1C3CCC1CC(OCc1c(-c4ccccc4OC(F)(F)F)noc1C1CC1)C3)CCC2` (stereo not shown) [Example 596], for which the Emax stood at 48%. For the same molecule, the EC50 (potency range, read-out: EC50) is over 1000 nM.

Turning to `COC(=O)c1ccc2c(c1)CN(C(=O)N1C3CCC1CC(OCc1c(-c4ccccc4OC(F)(F)F)noc1C1CC1)C3)C2` (stereo not shown) [Example 597], the Emax worked out at 53%. The molecule further yielded an EC50 (EC50, potency range) of 100 to 1000 nM. For the molecule `O=C(O)c1ccc2c(c1)CN(C(=O)N1C3CCC1CC(OCc1c(-c4ccccc4OC(F)(F)F)noc1C1CC1)C3)C2` (stereo not shown) [Example 598], the Emax amounted to 105%. For the same molecule, the EC50 (potency range, read-out: EC50) was in the range of 10 to 100 nM.

In the case of `O=C(O)c1ccc(NC(=O)N2C3CCC2CC(OCc2c(-c4c(Cl)cccc4Cl)noc2C2CC2)C3)c(F)c1` (stereo not shown) [Example 692], under setting [1], the Emax worked out at 156%. The EC50 (potency range, read-out: EC50) was under 10 nM. In the same order, the values of `CC1(S(=O)(=O)NC(=O)c2ccc(NC(=O)N3C4CCC3CC(OCc3c(-c5c(Cl)cccc5Cl)noc3C3CC3)C4)c(F)c2)CC1` (stereo not shown) [Example 693] are 203% and 100 to 1000 nM.

On to `C[C@@H](NC(=O)N1C2CCC1CC(OCc1c(-c3c(Cl)cccc3Cl)noc1C1CC1)C2)c1ccccc1` (stereo partly shown) [Example 694], for which the Emax was found to be 124%. Also, the EC50 (potency range, read-out: EC50) lay in the range of 100 to 1000 nM. As to `CN(C)S(=O)(=O)NC(=O)c1ccc(NC(=O)N2C3CCC2CC(OCc2c(-c4c(Cl)cccc4Cl)noc2C2CC2)C3)cc1` (stereo not shown) [Example 695], the Emax under setting [1] was determined as 140%. Moreover, the EC50 (potency range, read-out: EC50) lay in the range of 10 to 100 nM. In the same order, the values of `O=C(Nc1ccccc1)N1C2CCC1CC(OCc1c(-c3c(Cl)cccc3Cl)noc1C1CC1)C2` (stereo not shown) [Example 696] are 246% and under 10 nM.

As for `CC(C)(C)c1ccc(NC(=O)N2C3CCC2CC(OCc2c(-c4c(Cl)cccc4Cl)noc2C2CC2)C3)cc1` (stereo not shown) [Example 697], the Emax under setting [1] came out at 174%. The EC50 (potency range, read-out: EC50) was in the range of 100 to 1000 nM. On the same counts, the results for `O=C(Nc1ccc(F)cc1)N1C2CCC1CC(OCc1c(-c3c(Cl)cccc3Cl)noc1C1CC1)C2` (stereo not shown) [Example 698] are 182% and 10 to 100 nM.

Consider `O=C(Nc1ccc(F)c(F)c1)N1C2CCC1CC(OCc1c(-c3c(Cl)cccc3Cl)noc1C1CC1)C2` (stereo not shown) [Example 699], for which the Emax under setting [1] came out at 232%. In addition, the EC50 (potency range, read-out: EC50) was 10 to 100 nM. On the same counts, the results for `O=C(Nc1cc(F)cc(F)c1)N1C2CCC1CC(OCc1c(-c3c(Cl)cccc3Cl)noc1C1CC1)C2` (stereo not shown) [Example 700] are 292% and under 10 nM.

As to `O=C(Nc1ccc(-c2nnn[nH]2)cc1)N1C2CCC1CC(OCc1c(-c3c(Cl)cccc3Cl)noc1C1CC1)C2` (stereo not shown) [Example 701], the Emax under setting [1] was determined as 306%. Further, the 50% effective concentration (EC50) (potency range, read-out: EC50) was 100 to 1000 nM. `O=C(Nc1ccc(F)c(C(F)(F)F)c1)N1C2CCC1CC(OCc1c(-c3c(Cl)cccc3Cl)noc1C1CC1)C2` (stereo not shown) [Example 702]: the Emax under setting [1] is 258%. In addition, the EC50 (potency range, read-out: EC50) was under 10 nM.

On to `N#Cc1cncc(NC(=O)N2C3CCC2CC(OCc2c(-c4c(Cl)cccc4Cl)noc2C2CC2)C3)c1` (stereo not shown) [Example 703], for which the Emax under setting [1] turned out to be 170%. Further, the EC50 (potency range, read-out: EC50) is under 10 nM. On the same counts, the results for `N#Cc1cc(F)cc(NC(=O)N2C3CCC2CC(OCc2c(-c4c(Cl)cccc4Cl)noc2C2CC2)C3)c1` (stereo not shown) [Example 704] are 157% and under 10 nM.
